Assay: Degradation study of actives in DMSO at 50° C. by LC
Type: physicochemical
Experimental: A degradation study was performed using 2-chloro-6-(trichloromethyl)pyridine/nBPT in DMSO.
A 2-chloro-6-(trichloromethyl)pyridine/NBPT=1/1(w/w) mixture was dissolved in DMSO. LC (liquid chromatography) was performed to analyze the content decrease versus time. All samples were sealed and protected under N2. All samples were stored 50° C.
A C18 column was used, and measured at 255 nm. Retention time: 40 min.
Temperature: 30° C. 15 μL injection. Peak area percentages were calculated to analyze the concentration and are shown in below Table 3.

Q: For `Clc1cccc(C(Cl)(Cl)Cl)n1` [2-chloro-6-(trichloromethyl)pyridine], which “Content remaining, LC peak area percentage” value (1 week) is on record?
A: 100%

Q: And the “Content remaining, LC peak area percentage” value (2 week)?
A: 99%

Q: What about the “Content remaining, LC peak area percentage” value (3 week) of the same compound?
A: 99.4%

Q: What about the “Content remaining, LC peak area percentage” value (4 week) of the same compound?
A: 98.3%

Q: And the “Content remaining, LC peak area percentage” value (6 week)?
A: 95.3%

Q: What about the “Content remaining, LC peak area percentage” value (7 week) of the same compound?
A: 93.2%

Q: What about the “Content remaining, LC peak area percentage” value (8 week) of the same compound?
A: 92.3%

Q: And the “Content remaining, LC peak area percentage” value (9 week)?
A: 90.8%

Q: And the “Content remaining, LC peak area percentage” value (10 week)?
A: 88%

Q: And the “Content remaining, LC peak area percentage” value (11 week)?
A: 86.7%

Q: And the “Content remaining, LC peak area percentage” value (12 week)?
A: 86.4%

Q: And the “Content remaining, LC peak area percentage” value (13 week)?
A: 85%

Q: And the “Content remaining, LC peak area percentage” value (14 week)?
A: 84.33%

Q: What about the “Content remaining, LC peak area percentage” value (15 week) of the same compound?
A: 83.56%

Q: And the “Content remaining, LC peak area percentage” value (16 week)?
A: 81.45%

Q: And the “Content remaining, LC peak area percentage” value (17 week)?
A: 81%

Q: What about the “Content remaining, LC peak area percentage” value (18 week) of the same compound?
A: 80.09%

Q: Which results are given for `CCCCNP(N)(N)=S` [n-butylthiophosphoric triamide]?
A: Content remaining, LC peak area percentage (Week 1, 1/1 (w/w) mixture in DMSO, 50° C., sealed under N2): 100%; Content remaining, LC peak area percentage (Week 2, DMSO, 50° C.): 99.6%; Content remaining, LC peak area percentage (Week 3, DMSO, 50° C.): 98%; Content remaining, LC peak area percentage (Week 4, DMSO, 50° C.): 97.6%; Content remaining, LC peak area percentage (Week 6, DMSO, 50° C.): 96.5%; Content remaining, LC peak area percentage (Week 7, DMSO, 50° C.): 95.3%; Content remaining, LC peak area percentage (Week 8, DMSO, 50° C.): 94.7%; Content remaining, LC peak area percentage (Week 9, DMSO, 50° C.): 93%; Content remaining, LC peak area percentage (Week 10, DMSO, 50° C.): 92.2%; Content remaining, LC peak area percentage (Week 11, DMSO, 50° C.): 92.1%; Content remaining, LC peak area percentage (Week 12, DMSO, 50° C.): 91.7%; Content remaining, LC peak area percentage (Week 13, DMSO, 50° C.): 91%; Content remaining, LC peak area percentage (Week 14, DMSO, 50° C.): 90.88%; Content remaining, LC peak area percentage (Week 15, DMSO, 50° C.): 90.01%; Content remaining, LC peak area percentage (Week 16, DMSO, 50° C.): 99.55%; Content remaining, LC peak area percentage (Week 17, DMSO, 50° C.): 89.06%; Content remaining, LC peak area percentage (Week 18, DMSO, 50° C.): 88.6%

Reference: US12116325B2, “Increased longevity of the nitrogen content of soil through improved liquid delivery formulations of nitrification inhibitors designed for urea and manure based fertilizers” (SOILGENIC TECHNOLOGIES, LLC, priority 2014, dated 2024)
